Source: US11533912B2, “Use of cinnamate compounds in the control of fungal diseases of crops” (Institute of Plant Protection, Gansu Academy of …, priority 2019, dated 2022)
Like-named read-outs stand apart in the source and are kept apart here.

Columns and labels:
[1] = tested on: Valsa mali; assay: Ex vivo mycelial growth, growth rate method; format: cell-based; settings: 1 mg/mL
[2] = tested on: Thanatephorus cucumeris; assay: Ex vivo mycelial growth, growth rate method; format: cell-based; settings: 1 mg/mL
[3] = tested on: plant pathogenic fungi; assay: organism not typed; format: cell-based; settings: read-out: inhibition rate on mycelial growth, range over 9 fungi
[4] = tested on: E. polygoni; assay: In-vivo control of marrow bean powdery mildew in a greenhouse
Experimental: (2) In-Vivo Determination Method • Marrow bean (Variety: Thailand Jiadouwang) were cultured in pots in a greenhouse, and inoculated with E. polygoni at the stage of 4 leaves. […] Both sides of the leaves were sprayed evenly with a small hand-held sprayer so that the leaves were wetted by the liquor without loss. Applications were conducted every 7 days consecutively for 4 times. 10 days after the fourth application, the number of disease leaves at each grade of powdery mildew was investigated for the whole plant following the grading standard of 9 grades, to calculate the disease index and the control effect.

[5] = tested on: damping-off (P. aphanidermatum, P capsici); assay: In-vivo control of pepper damping-off in a greenhouse (sick soil); settings: 0.80 mg/mL, 200 mL liquor per pot
Experimental: (§1) (2) In-Vivo Determination Method • Sick soil of damping-off (P. aphanidermatum, P capsici) was collected from the fields of tomatoes, eggplants and peppers in solar greenhouse, and mixed evenly in equal proportion. Tomatoes (Variety: Song Tian Fen Yang Yang, 100 grains), eggplants (Variety: Lanza No. 2 F1 long eggplant, 100 grains), pepper (Longjiao 2 F1, 100 grains) were seeded quantitatively with the sick soil in pots (diameter: 15 cm) in a greenhouse, additionally with sterile vermiculite as the control (each 100 grains for determining the germination rate). […] The computational formula is as below: Mortality of Seedlings (%)=[number of survival seedlings in the seeded grains−number of seeded grains×(100%−germination rate)]/number of seeded grains×100; Control Effect (%)=(mortality of control seedlings−mortality of treated seedlings)/mortality of control seedlings×100.

[6] = tested on: Colletotrichum capsici; assay: Ex vivo mycelial growth, growth rate method; format: cell-based; settings: 1 mg/mL
[7] = tested on: Sclerotinia sclerotiorum; assay: Ex vivo mycelial growth, growth rate method; format: cell-based; settings: 1 mg/mL
[8] = tested on: zucchini powdery mildew; assay: Field efficiency test on zucchini powdery mildew; format: in vivo; settings: 0.50 mg/mL
[9] = tested on: Phytophthora infestans; format: cell-based; settings: Phytophthora infestans (first line), 1 mg/mL
[10] = tested on: Botryosphaeriana berengeriana; assay: Ex vivo mycelial growth, growth rate method (line 'Botryosphaeriana berengeriana', r23); format: cell-based; settings: Botryosphaeriana berengeriana (first line), 1 mg/mL
[11] = tested on: Erysiphe cucurbitacearum or Sphaerotheca cucurbitae; assay: In-vivo control of zucchini powdery mildew in a greenhouse
Experimental: (2) In-Vivo Determination Method • Zucchini (Variety: Wuwei Xianglin extra-early 1st generation) were cultured in pots in a greenhouse, and inoculated with Erysiphe cucurbitacearum or Sphaerotheca cucurbitae at the stage of 3 to 4 leaves. […] Both sides of the leaves were sprayed evenly with a small hand-held sprayer so that the leaves were wetted by the liquor without loss. Applications were conducted every 7 days consecutively for 4 times. 10 days after the fourth application, the number of disease leaves at each grade of powdery mildew was investigated for the whole plant following the grading standard of 9 grades, to calculate the disease index and the control effect. The computational formula is as below: Disease index=[(Number of disease leaves at each grade×Corresponding grade value)/(Total number of investigated leaves×9)]×100; Control effect=(Disease index of the clear water control−Treated disease index)/Disease index of the clear water control×100.

[12] = tested on: damping-off (P. aphanidermatum, P capsici); assay: In-vivo control of tomato damping-off in a greenhouse (sick soil); settings: 0.80 mg/mL, 200 mL liquor per pot
Experimental: as §1

[13] = tested on: Fusarium graminearum; assay: microbe, parasite or virus in culture; format: cell-based
[14] = tested on: Phytophthora capsici; assay: Ex vivo mycelial growth, growth rate method; format: cell-based
[15] = tested on: Coniella diplodiella; assay: Ex vivo mycelial growth, growth rate method; format: cell-based; settings: 1 mg/mL
[16] = tested on: F. verticillioide; assay: Ex vivo mycelial growth, growth rate method; format: cell-based; settings: 1 mg/mL
[17] = tested on: C. gossypii; assay: Ex vivo mycelial growth, growth rate method; format: cell-based; settings: 1 mg/mL
[18] = tested on: Mycosphaerlla melonis; assay: Ex vivo mycelial growth, growth rate method; format: cell-based; settings: 1 mg/mL
[19] = tested on: Gaeumannomyces graminis var. graminis and G. graminis var. tritici; assay: Ex vivo mycelial growth, growth rate method; format: cell-based; settings: 1 mg/mL
[20] = tested on: E. cichoracearum; assay: Field efficiency test on cucumber powdery mildew; settings: 0.50 mg/mL (active ingredients)
Experimental: The first application was started on Jun. 15, 2018, and E. cichoracearum was inoculated on June 17th (the diseased leaves were harvested from the solar greenhouse near the military airfield at Xiaguanying town, Yuzhong County, moisturized in the greenhouse for 2 days, then shredded, and filtered over a gauze, the filtrate was sprayed onto both sides of the cucumber leaves with the cone nozzle of an electric sprayer for inoculation). The second, third and fourth applications were conducted on June 23rd, July 2nd, and July 9th respectively, the water consumptions of which were adjusted promptly according to the amount of water desired for spraying evenly onto both sides of the control leaves. 10 days after the fourth application, the number of disease leaves at each grade of powdery mildew was investigated following the grading standard of 9 grades, to calculate the disease index and the control effect.

[21] = tested on: F. oxysporum f. sp. lini; assay: Ex vivo mycelial growth, growth rate method; format: cell-based; settings: 1 mg/mL
[22] = tested on: Exserohilum turcicum; assay: Ex vivo mycelial growth, growth rate method; format: cell-based; settings: 1 mg/mL
[23] = tested on: Phytophthora infestans; format: cell-based; settings: Phytophthora infestans (second line), 1 mg/mL
[24] = tested on: Rhizoctonia solani; assay: Ex vivo mycelial growth, growth rate method; format: cell-based; settings: 1 mg/mL
[25] = tested on: Pyricularia grisea; assay: microbe, parasite or virus in culture; format: cell-based
[26] = tested on: Botryosphaeria berengeriana; assay: Ex vivo mycelial growth, growth rate method (line 'Botryosphaeria berengeriana', r34); format: cell-based; settings: Botryosphaeria berengeriana (second line), 1 mg/mL
[27] = tested on: F. graminearum; assay: microbe, parasite or virus in culture; format: cell-based
[28] = tested on: Botrytis cinerea; assay: Ex vivo mycelial growth, growth rate method; format: cell-based; settings: 1 mg/mL
[29] = tested on: F. oxysporum f. sp. vasinfectum; assay: Ex vivo mycelial growth, growth rate method; format: cell-based; settings: 1 mg/mL
[30] = tested on: Pythium aphanidermatum; assay: Ex vivo mycelial growth, growth rate method; format: cell-based; settings: 1 mg/mL
[31] = tested on: Blumeria graminis f. sp. trilici; assay: In-vivo control of wheat powdery mildew in a greenhouse; design: species or system Blumeria graminis f. sp. trilici on winter wheat
[32] = tested on: cucumber; assay: Crop safety (phytotoxicity) in the cucumber field test; settings: at the test doses (triazole control agents: 1500 fold liquid)
[33] = tested on: zucchini; settings: in vivo
Text: The first application was started on August 26th, at the early onset of powdery mildew (the average disease index is 10.07). The instrument for application was Agrolex HD 400 Model hand operating knapsack sprayer, which employed a cone nozzle. Each agent was formulated into the desired concentrations according to the usage amount of the control clear water. Both sides of the leaves were sprayed evenly so that the leaves were wetted by the liquor without loss. […] Thereafter, applications were conducted every 7 days consecutively for 4 times. 10 days after the last application, the number of disease leaves at each grade of powdery mildew was investigated for the whole plant following the grading standard of 9 grades, to calculate the disease index and the control effect.

[34] = Fusarium graminearum, read-out: Inhibition Rate
[35] = mycelial growth, Phytophthora capsici, 1 mg/mL
[36] = Fusarium oxysporum, mycelial growth
[37] = F. graminearum (second line), 1 mg/mL

CCOC(=O)/C=C/c1ccc(OC)c(F)c1 [ethyl 3-(3′-fluoro-4′-methoxyphenyl) acrylate]
Average Diameter of the Colony [1]: 0.85 cm | inhibition at 1000 µg/mL ([1]; Cytospora mali, mycelial growth): 89.2% | Average Diameter of the Colony [2]: 2.05 cm | inhibition at 1000 µg/mL ([2]; mycelial growth): 76.2% | inhibition at 1000 µg/mL [3]: 82 to 100% | Control Effect ([4]; 0.10 mg/mL): 77.26% | Control Effect ([4]; 0.143 mg/mL): 91.16% | Control Effect ([4]; 0.20 mg/mL): 94.51% | control effect on pepper damping-off [5]: 56.47% | Average Diameter of the Colony [6]: 0.11 cm | inhibition at 1000 µg/mL ([6]; Colletotrichum truncatum, mycelial growth): 98.4% | Average Diameter of the Colony [7]: 2.58 cm | inhibition at 1000 µg/mL ([7]; mycelial growth): 70% | Control Effect [8]: 85.82% | Average Diameter of the Colony [9]: 1.40 cm | Average Diameter of the Colony [10]: 1.19 cm | inhibition at 1000 µg/mL ([10]; mycelial growth): 79.1% | Control Effect ([11]; 0.20 mg/mL): 52.71% | Control Effect ([11]; 0.333 mg/mL): 95.60% | Control Effect ([11]; 0.50 mg/mL): 97.11% | control effect on tomato damping-off [12]: 51.02% | Average Diameter of the Colony ([13]; Fusarium graminearum (first line), 1 mg/mL): 3.26 cm | inhibition at 1000 µg/mL [13, 34]: 39.1% | Average Diameter of the Colony ([14]; Phytophthora capsici, 1 mg/mL): 1.26 cm | inhibition at 1000 µg/mL [14, 35]: 76.2% | antifungal activity on Phytophthora capsici compared with hymexazol ([14]; supplementary determination results): superior to that of the control agent, hymexazol | Average Diameter of the Colony [15]: 0.00 cm | inhibition at 1000 µg/mL ([15]; mycelial growth): 100% | Average Diameter of the Colony [16]: 2.34 cm | inhibition at 1000 µg/mL ([16]; mycelial growth): 30.8% | Average Diameter of the Colony [17]: 0.42 cm | inhibition at 1000 µg/mL ([17]; Colletotrichum gossypii, mycelial growth): 92.2% | Average Diameter of the Colony [18]: 0.37 cm | inhibition at 1000 µg/mL ([18]; mycelial growth): 95.7% | Average Diameter of the Colony [19]: 2.29 cm | inhibition at 1000 µg/mL ([19]; mycelial growth): 40% | control effect on cucumber powdery mildew [20]: 78.42% | Average Diameter of the Colony [21]: 7.20 cm | inhibition at 1000 µg/mL [21, 36]: 20% | Average Diameter of the Colony [22]: 0.10 cm | inhibition at 1000 µg/mL ([22]; mycelial growth): 98.4% | Average Diameter of the Colony [23]: 0.00 cm | Average Diameter of the Colony [24]: 0.00 cm | inhibition at 1000 µg/mL ([24]; mycelial growth): 100% | Average Diameter of the Colony ([25]; 1 mg/mL): 7.70 cm | inhibition at 1000 µg/mL ([25]; read-out: Inhibition Rate): 14.4% | Average Diameter of the Colony [26]: 1.72 cm | inhibition at 1000 µg/mL ([26]; mycelial growth): 74.7% | Average Diameter of the Colony [27, 37]: 2.77 cm | inhibition at 1000 µg/mL [27, 34]: 67.8% | Average Diameter of the Colony [28]: 1.35 cm | inhibition at 1000 µg/mL ([28]; mycelial growth): 82% | Average Diameter of the Colony [29]: 4.45 cm | inhibition at 1000 µg/mL [29, 36]: 38.5% | Average Diameter of the Colony [30]: 2.60 cm | inhibition at 1000 µg/mL ([30]; mycelial growth): 61.2% | Control Effect ([31]; 0.143 mg/mL): 64.75% | Control Effect ([31]; 0.20 mg/mL): 67.60%

COC(=O)C=Cc1ccc(OC)c(OC)c1 [Control Compound A, methyl 3,4-dimethoxy cinnamate, reference compound]
Average Diameter of the Colony [1]: 0.00 cm | Inhibition Rate ([1]; mycelial growth): 100% | phytotoxicity / safety for cucumber [32]: safe for zucchini and cucumber | Average Diameter of the Colony [7]: 0.00 cm | Inhibition Rate ([7]; mycelial growth): 100% | safety for zucchini [33]: safe for zucchini and cucumber | Average Diameter of the Colony [9]: 2.77 cm | Inhibition Rate ([9]; mycelial growth): 64.94% | Average Diameter of the Colony ([14]; Phytophthora capsici, 1 mg/mL): 1.97 cm | Inhibition Rate [14, 35]: 75.06% | Average Diameter of the Colony [17]: 3.83 cm | Inhibition Rate ([17]; mycelial growth): 51.52% | Average Diameter of the Colony [18]: 0.67 cm | Inhibition Rate ([18]; mycelial growth): 91.52% | Average Diameter of the Colony [22]: 1.37 cm | Inhibition Rate ([22]; mycelial growth): 82.66% | Average Diameter of the Colony [23]: 0.27 cm | Inhibition Rate ([23]; mycelial growth): 96.58% | Average Diameter of the Colony [24]: 0.67 cm | Inhibition Rate ([24]; mycelial growth): 91.52% | Average Diameter of the Colony ([25]; 1 mg/mL): 3.83 cm | Inhibition Rate ([25]; mycelial growth, 1 mg/mL): 51.52% | Average Diameter of the Colony [27, 37]: 4.90 cm | Inhibition Rate ([27]; mycelial growth, F. graminearum (second line), 1 mg/mL): 37.98% | Average Diameter of the Colony [28]: 2.27 cm | Inhibition Rate ([28]; mycelial growth): 71.27% | Average Diameter of the Colony [29]: 2.43 cm | Inhibition Rate ([29]; mycelial growth): 69.24%
